Test results taken from article PMC5224920, “Assessing the mechanism and therapeutic potential of modulators of the human Mediator complex-associated protein kinases” (eLife, 2016).

System: 12 single or co-culture in vitro tissue models of primary cells
Test: Culture/co-culture cell model panel, extracellular biomarkers (DiscoveRx); for CCL2/MCP-1: reference of the scale not given here; for CD141/Thrombomodulin: reference of the scale not given here; for CD142/Tissue Factor: reference of the scale not given here; for CD38: reference of the scale not given here; for CD40: reference of the scale not given here; for CD69: reference of the scale not given here; for CXCL8/IL-8: reference of the scale not given here; for CXCL9/MIG: reference of the scale not given here; for IL-1alpha: reference of the scale not given here; for M-CSF: reference of the scale not given here; for PBMC Cytotoxicity: reference of the scale not given here; for SRB: reference of the scale not given here; for sPGE2: reference of the scale not given here; for sTNF-alpha: reference of the scale not given here
Format: cell-based, human
[1] = HDF3CGF stimulated fibroblasts, 1.00E3 nM
[2] = HDF3CGF stimulated fibroblasts, 1.00E4 nM
[3] = HPNo Huvec+PBMC unstimulated, 1.00E0 nM
[4] = HPNo Huvec+PBMC unstimulated, 1.00E1 nM
[5] = HPNo Huvec+PBMC unstimulated, 1.00E2 nM
[6] = HPNo Huvec+PBMC unstimulated, 1.00E3 nM
[7] = HPNo Huvec+PBMC unstimulated, 1.00E4 nM

## CN1c2ccc(-c3cncc(Cl)c3N3CCC4(CC3)CNC(=O)O4)cc2CS1(=O)=O [CMPD2]
[1]
  EGFR: -0.052
  M-CSF: -0.096
  MMP-1: 0.008
  PAI-I: -0.00267
  Proliferation_72hr: -0.251
  SRB: 0.000361
  TIMP-1: -0.053
  TIMP-2: 0.124
[2]
  CCL2/MCP-1: -0.114
  CD54/ICAM-1: -0.054
  CD106/VCAM-1: 0.046
  CXCL8/IL-8: -0.128
  CXCL9/MIG: -0.076
  CXCL10/IP-10: 0.028
  CXCL11/I-TAC: -0.031
  Collagen I: 0.036
  Collagen III: 0.126
  EGFR: -0.055
  M-CSF: -0.106
  MMP-1: 0.00332
  PAI-I: -0.018
  Proliferation_72hr: -0.340
  SRB: -0.00651
  TIMP-1: -0.067
  TIMP-2: 0.106
[3]
  CCL2/MCP-1: 0.047
  CD38: 0.008
  CD40: -0.048
  CD106/VCAM-1: 0.122
  CD141/Thrombomodulin: 0.013
  CD142/Tissue Factor: 0.008
[4]
  CCL2/MCP-1: 0.017
  CD38: -0.016
  CD40: -0.068
  CD106/VCAM-1: 0.183
  CD141/Thrombomodulin: -0.006
  CD142/Tissue Factor: 0.035
[5]
  CCL2/MCP-1: 0.000304
  CD38: 0.014
  CD40: -0.055
  CD106/VCAM-1: 0.274
  CD141/Thrombomodulin: 0.005
  CD142/Tissue Factor: 0.003
[6]
  CCL2/MCP-1: 0.022
  CD38: -0.028
  CD40: -0.055
  CD106/VCAM-1: 0.205
  CD141/Thrombomodulin: 0.027
  CD142/Tissue Factor: -0.00853
[7]
  CCL2/MCP-1: 0.015
  CD38: -0.095
  CD40: -0.048
  CD106/VCAM-1: 0.147
  CD141/Thrombomodulin: 0.018
  CD142/Tissue Factor: -0.051
HPNo, 1.00E0 nM
  CD69: 0.011
  CXCL8/IL-8: 0.022
  CXCL9/MIG: 0.062
  M-CSF: 0.018
  SRB: -0.102
  sPGE2: 0.045
  sTNF-alpha: 0.140
HPNo, 1.00E1 nM
  CD69: -0.097
  CXCL8/IL-8: -0.006
  CXCL9/MIG: -0.00447
  M-CSF: -0.015
  SRB: -0.043
  sPGE2: 0.026
  sTNF-alpha: 0.045
HPNo, 1.00E2 nM
  CD69: 0.035
  CXCL8/IL-8: 0.008
  CXCL9/MIG: 0.020
  M-CSF: -0.038
  SRB: 0.011
  sPGE2: 0.045
  sTNF-alpha: 0.037
HPNo, 1.00E3 nM
  CD69: -0.007
  CXCL8/IL-8: 0.014
  CXCL9/MIG: -0.00342
  M-CSF: 0.051
  SRB: 0.00149
  sPGE2: 0.054
  sTNF-alpha: -0.000698
HPNo, 1.00E4 nM
  CD69: -0.024
  CXCL8/IL-8: 0.024
  CXCL9/MIG: -0.063
  M-CSF: -0.029
  SRB: -0.014
  sPGE2: 0.013
  sTNF-alpha: 0.230
LPS Huvec+PBMC, 1.00E0 nM
  CCL2/MCP-1: 0.007
  CD40: -0.057
  CD69: -0.008
  CD106/VCAM-1: 0.052
  CD141/Thrombomodulin: 0.041
  CD142/Tissue Factor: 0.093
  CXCL8/IL-8: -0.00258
  IL-1alpha: 0.057
  M-CSF: 0.019
  SRB: -0.024
  sPGE2: 0.070
  sTNF-alpha: 0.028
LPS Huvec+PBMC, 1.00E1 nM
  CCL2/MCP-1: -0.031
  CD40: -0.098
  CD69: -0.024
  CD106/VCAM-1: 0.019
  CD141/Thrombomodulin: 0.064
  CD142/Tissue Factor: 0.086
  CXCL8/IL-8: -0.035
  IL-1alpha: 0.041
  M-CSF: -0.003
  SRB: -0.065
  sPGE2: 0.126
  sTNF-alpha: 0.036
LPS Huvec+PBMC, 1.00E2 nM
  CCL2/MCP-1: -0.057
  CD40: -0.098
  CD69: 0.050
  CD106/VCAM-1: 0.052
  CD141/Thrombomodulin: 0.070
  CD142/Tissue Factor: 0.084
  CXCL8/IL-8: -0.122
  IL-1alpha: 0.033
  M-CSF: -0.006
  SRB: -0.068
  sPGE2: 0.155
  sTNF-alpha: 0.039
LPS Huvec+PBMC, 1.00E3 nM
  CCL2/MCP-1: -0.096
  CD40: -0.100
  CD69: 0.022
  CD106/VCAM-1: 0.055
  CD141/Thrombomodulin: 0.054
  CD142/Tissue Factor: 0.086
  CXCL8/IL-8: -0.148
  IL-1alpha: 0.00095
  M-CSF: -0.00124
  SRB: -0.066
  sPGE2: 0.173
  sTNF-alpha: 0.034
LPS Huvec+PBMC, 1.00E4 nM
  CCL2/MCP-1: -0.102
  CD40: -0.101
  CD69: 0.034
  CD106/VCAM-1: 0.035
  CD141/Thrombomodulin: 0.062
  CD142/Tissue Factor: 0.080
  CXCL8/IL-8: -0.154
  IL-1alpha: -0.070
  M-CSF: -0.021
  SRB: -0.070
  sPGE2: 0.182
  sTNF-alpha: -0.175
SAg, 1.00E0 nM
  CCL2/MCP-1: 0.032
  CD38: -0.023
  CD40: -0.085
  CD69: 0.033
  CXCL8/IL-8: 0.067
  CXCL9/MIG: -0.004
  PBMC Cytotoxicity: 0.038
  Proliferation: 0.024
  SRB: -0.013
SAg, 1.00E1 nM
  CCL2/MCP-1: -0.012
  CD38: -0.063
  CD40: -0.169
  CD69: 0.018
  CXCL8/IL-8: -0.038
  CXCL9/MIG: -0.018
  PBMC Cytotoxicity: 0.015
  Proliferation: 0.017
  SRB: -0.031
SAg, 1.00E2 nM
  CCL2/MCP-1: -0.066
  CD38: -0.040
  CD40: -0.131
  CD69: 0.026
  CXCL8/IL-8: -0.133
  CXCL9/MIG: -0.055
  PBMC Cytotoxicity: 0.00148
  Proliferation: 0.021
  SRB: -0.056
SAg, 1.00E3 nM
  CCL2/MCP-1: -0.072
  CD38: -0.069
  CD40: -0.122
  CD69: 0.050
  CXCL8/IL-8: -0.196
  CXCL9/MIG: -0.061
  PBMC Cytotoxicity: 0.00529
  Proliferation: 0.010
  SRB: -0.049
SAg, 1.00E4 nM
  CCL2/MCP-1: -0.111
  CD38: -0.058
  CD40: -0.144
  CD69: 0.006
  CXCL8/IL-8: -0.208
  CXCL9/MIG: -0.061
  PBMC Cytotoxicity: 0.00852
  Proliferation: -0.041
  SRB: -0.053
